# Source: patent US9120749B2, “Quinoline derivatives and MELK inhibitors containing the same” (ONCOTHERAPY SCIENCE, INC., priority 2010, dated 2015)
# Where a name gives a salt, the structure may show the parent alone. Read-outs that look alike come from different tables or passages of the source.
# What was measured:
# MELK = MELK (Homo sapiens, UniProt Q14680); experiment: Kinase assay: MELK activity, phosphorylation of FITC-labeled histone H3 peptide measured by IMAP fluorescence polarization; format: biochemical
# Chain of MELK (Q14680 whole entry, looked up): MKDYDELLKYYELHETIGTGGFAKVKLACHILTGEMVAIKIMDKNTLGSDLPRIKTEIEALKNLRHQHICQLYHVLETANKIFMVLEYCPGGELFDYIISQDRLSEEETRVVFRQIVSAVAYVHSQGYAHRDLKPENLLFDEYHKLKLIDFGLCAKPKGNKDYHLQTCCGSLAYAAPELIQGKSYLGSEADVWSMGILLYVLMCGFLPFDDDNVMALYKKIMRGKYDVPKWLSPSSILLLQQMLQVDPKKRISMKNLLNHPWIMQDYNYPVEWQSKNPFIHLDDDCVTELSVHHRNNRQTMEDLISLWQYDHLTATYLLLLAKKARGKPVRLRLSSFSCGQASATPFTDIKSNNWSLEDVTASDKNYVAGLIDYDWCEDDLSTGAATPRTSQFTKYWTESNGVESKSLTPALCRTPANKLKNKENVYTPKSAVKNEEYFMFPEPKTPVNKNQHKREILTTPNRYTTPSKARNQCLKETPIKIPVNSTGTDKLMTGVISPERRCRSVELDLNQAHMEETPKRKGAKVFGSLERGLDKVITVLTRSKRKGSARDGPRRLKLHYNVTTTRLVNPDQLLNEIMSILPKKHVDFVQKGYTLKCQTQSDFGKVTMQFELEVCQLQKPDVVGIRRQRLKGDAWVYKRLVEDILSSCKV
# Procedure, shortened: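 Compounds, serially diluted from 12.5 mM DMSO stocks to 1% final DMSO, were tested with FITC-labeled histone H3 peptide as substrate. The reaction was stopped with progressive binding solution. Fluorescence polarization was read after 0.5 hour at room temperature.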
# HT-1197 cells = experiment: Cell-based assay: anti-proliferative activity, Cell Counting Kit-8, 72 hours (HT-1197, negative control without MELK expression); conditions: HT1197 cells (negative control), 72 hours
# Procedure, shortened: (§1)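 Anti-MELK western blot on crude lysates → MELK status per line. Cells plated 96-well, compound exposure, CCK-8 readout at 72 h; IC50 calculated.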
# A549 cells = experiment: Cell-based assay: anti-proliferative activity, Cell Counting Kit-8, 72 hours (A549); conditions: 72 hours
# Procedure, shortened: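 A549 cells seeded in 96-well plates and exposed to candidate inhibitors for 72 hours. Growth measured with Cell Counting Kit-8; IC50 values calculated from the dose response.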
# DU4475 cells = experiment: Cell-based assay: anti-proliferative activity, Cell Counting Kit-8, 72 hours (DU4475)
# T47D cells = experiment: Cell-based assay: anti-proliferative activity, Cell Counting Kit-8, 72 hours (T47D)
# Procedure, shortened: as §1
# [1] = read-out: IC50 (μM) (kinase assay)
Structure (SMILES),IC50 (MELK; [1]),"IC50 (HT-1197 cells; Homo sapiens, HT1197, 72 h)","IC50 (A549 cells; Homo sapiens, A549, 72 h)","IC50 (DU4475 cells; Homo sapiens, DU-4475, 72 h)","IC50 (T47D cells; Homo sapiens, T47D, 72 h)",further results
"NC1CCN(c2ncc(Nc3c(C(=O)C4CC4)cnc4ccc(-c5cc(F)c(O)c(Cl)c5)cc34)cn2)CC1 [Example 567, (4-(2-(4-aminopiperidin-1-yl)pyrimidin-5-ylamino)-6-(3-chloro-5-fluoro-4-hydroxyphenyl)quinolin-3-yl)(cyclopropyl)methanone]",0.0083 µM,1.9 µM,0.34 µM,0.18 µM,0.076 µM,–
"O=C(c1cnc2ccc(-c3cc(F)c(O)c(Cl)c3)cc2c1N[C@H]1CC[C@H](CN2CCCC2)CC1)C1CC1 [Example 587, (6-(3-chloro-5-fluoro-4-hydroxyphenyl)-4-((trans-4-(pyrrolidin-1-ylmethyl)cyclohexyl)amino)quinolin-3-yl)(cyclopropyl)methanone]",0.0032 µM,0.55 µM,0.084 µM,0.065 µM,0.11 µM,–
"NC1CCN(c2ncc(Nc3c(C(=O)C4CC4)cnc4ccc(-c5cc(Cl)c(O)c(Cl)c5)cc34)cn2)CC1 [Example 566, (4-(2-(4-aminopiperidin-1-yl)pyrimidin-5-ylamino)-6-(3,5-dichloro-4-hydroxyphenyl)quinolin-3-yl)(cyclopropyl)methanone]",0.003 µM,2.6 µM,0.4 µM,0.13 µM,0.11 µM,–
"CCCC(=O)c1cnc2ccc(-c3cc(Cl)c(O)c(Cl)c3)cc2c1Nc1ccc(CN(C)C)cc1 [Example 531, 1-(6-(3,5-dichloro-4-hydroxyphenyl)-4-((4-((dimethylamino)methyl)phenyl)amino)quinolin-3-yl)butan-1-one dihydrochloride]",–,–,–,–,–,"IC50 (MELK; dihydrochloride, read-out: IC50 (μM) (kinase assay)): 0.0052 µM; IC50 (HT-1197 cells; dihydrochloride): 1.3 µM; IC50 (A549 cells; dihydrochloride): 0.18 µM; IC50 (DU4475 cells; dihydrochloride): 0.072 µM; IC50 (T47D cells; 72 hours, dihydrochloride): 0.11 µM"
"O=C(c1cnc2ccc(-c3cc(Cl)c(O)c(Cl)c3)cc2c1N1CCC(C2CCNCC2)CC1)C1CC1 [Example 596, (4-(4,4′-bipiperidin-1-yl)-6-(3,5-dichloro-4-hydroxyphenyl)quinolin-3-yl)(cyclopropyl)methanone]",0.0016 µM,5.1 µM,1.5 µM,0.14 µM,0.18 µM,–
"NC1CCCN(c2ccc(Nc3c(C(=O)C4CC4)cnc4ccc(-c5cc(F)c(O)c(Cl)c5)cc34)cn2)C1 (stereo not shown) [Example 562, (4-(6-(3-aminopiperidin-1-yl)pyridin-3-ylamino)-6-(3-chloro-5-fluoro-4-hydroxyphenyl)quinolin-3-yl)(cyclopropyl)methanone hydrochloride]",–,–,–,–,–,"IC50 (MELK; hydrochloride, read-out: IC50 (μM) (kinase assay)): 0.0017 µM; IC50 (HT-1197 cells; hydrochloride): 0.19 µM; IC50 (A549 cells; hydrochloride): 0.012 µM; IC50 (DU4475 cells; hydrochloride): 0.0089 µM; IC50 (T47D cells; 72 hours, hydrochloride): 0.0064 µM"
"O=C(c1cnc2ccc(-c3cc(Cl)c(O)c(Cl)c3)cc2c1N[C@H]1CC[C@H](CN2CC[C@@H](F)C2)CC1)C1CC1 [Example 571, cyclopropyl(6-(3,5-dichloro-4-hydroxyphenyl)-4-((trans-4-(((R)-3-fluoropyrrolidin)methyl)cyclohexyl)amino)quinolin-3-yl)methanon]",0.0043 µM,0.39 µM,0.16 µM,0.08 µM,0.18 µM,–
"COc1cc(-c2ccc3ncc(C(=O)C4CC4)c(Nc4ccc(N)nc4)c3c2)cc(Cl)c1O [Example 589, (4-(6-aminopyridin-3-ylamino)-6-(3-chloro-4-hydroxy-5-methoxyphenyl)quinolin-3-yl)(cyclopropyl)methanone]",0.011 µM,1.4 µM,0.18 µM,0.21 µM,0.61 µM,–
"Nc1ccc(Nc2c(C(=O)C3CC3)cnc3ccc(-c4cc(Cl)c(O)c(Cl)c4)cc23)cn1 [Example 590, (4-(6-aminopyridin-3-ylamino)-6-(3,5-dichloro-4-hydroxyphenyl)quinolin-3-yl)(cyclopropyl)methanone]",0.014 µM,2.2 µM,0.48 µM,0.19 µM,0.48 µM,–
COc1cc(-c2ccc3ncc(C(=O)C4CC4)c(N[C@H]4CC[C@H](CN5CCCC5)CC4)c3c2)cc(Cl)c1O [Example 586],0.0028 µM,3 µM,0.2 µM,0.19 µM,0.38 µM,–
"O=C(c1cnc2ccc(-c3cc(Cl)c(O)c(Cl)c3)cc2c1N[C@H]1CC[C@H](CN2CCCC2)CC1)C1CC1 [Example 584, cyclopropyl(6-(3,5-dichloro-4-hydroxyphenyl)-4-((trans-4-(pyrrolidin-1-ylmethyl)cyclohexyl)amino)quinolin-3-yl)methanone]",0.0016 µM,0.86 µM,0.071 µM,0.053 µM,0.13 µM,–
"O=C(c1cnc2ccc(-c3cc(F)c(O)c(Cl)c3)cc2c1N[C@H]1CC[C@H](CN2CC[C@@H](F)C2)CC1)C1CC1 [Example 570, (6-(3-chloro-5-fluoro-4-hydroxyphenyl)-4-((trans-4-(((R)-3-fluoropyrrolidin-1-yl)methyl)cyclohexyl)amino)quinolin-3-yl)(cyclopropyl)methanone]",0.016 µM,0.16 µM,0.13 µM,0.089 µM,0.14 µM,–
"CCCC(=O)c1cnc2ccc(-c3cc(F)c(O)c(Cl)c3)cc2c1N[C@H]1CC[C@H](N)CC1 [Example 532, 1-(4-((trans-4-aminocyclohexyl)amino)-6-(3-chloro-5-fluoro-4-hydroxyphenyl)quinolin-3-yl)butan-1-one]",0.017 µM,2.9 µM,0.49 µM,0.03 µM,0.046 µM,–
"CN(C)Cc1ccc(Nc2c(C(=O)C3CC3)cnc3cc(F)c(-c4cc(Cl)c(O)c(Cl)c4)cc23)cc1 [Example 547, cyclopropyl(6-(3,5-dichloro-4-hydroxyphenyl)-4-(4-((dimethylamino)methyl)phenylamino)-7-fluoroquinolin-3-yl)methanone]",0.02 µM,1.9 µM,0.13 µM,0.14 µM,0.41 µM,–
"COc1cc(-c2ccc3ncc(C(=O)C4CC4)c(N4CCC(C5CCNCC5)CC4)c3c2)cc(Cl)c1O [Example 595, (4-(4,4′-bipiperidin-1-yl)-6-(3-chloro-4-hydroxy-5-methoxyphenyl)quinolin-3-yl)(cyclopropyl)methanone]",0.0042 µM,3.4 µM,0.57 µM,0.64 µM,0.41 µM,–
"CCCC(=O)c1cnc2ccc(-c3cnc(C#N)nc3)cc2c1Nc1ccc(CN(C)C)cc1 [Example 539, 5-(3-butyryl-4-(4-((dimethylamino)methyl)phenylamino)quinolin-6-yl)pyrimidine-2-carbonitrile]",0.0038 µM,1.6 µM,1.6 µM,1.5 µM,0.37 µM,–
"O=C(c1cnc2ccc(-c3ccc(O)c(Cl)c3)cc2c1Nc1cnn(C2CCNCC2)c1)C1CC1 [Example 519, (6-(3-chloro-4-hydroxyphenyl)-4-((1-(piperidin-4-yl)-1H-pyrazol-4-yl)amino)quinolin-3-yl)(cyclopropyl)methanone]",0.003 µM,1.6 µM,0.14 µM,0.1 µM,0.12 µM,–
CN[C@H]1CC[C@H](Nc2c(C(C)=O)cnc3ccc(-c4cc(Cl)c(O)c(Cl)c4)cc23)CC1 [Example 558],0.0025 µM,10 µM,0.32 µM,0.043 µM,0.094 µM,–
CC(C)C(=O)c1cnc2ccc(-c3cc(F)c(O)c(Cl)c3)cc2c1N[C@H]1CC[C@H](CN(C)C)CC1 [Example 620],0.0066 µM,0.17 µM,0.18 µM,0.095 µM,0.16 µM,–
"C=CCN(CC=C)C1(C)CCC(Nc2c(C(=O)C3CC3)cnc3ccc(-c4cc(Cl)c(O)c(Cl)c4)cc23)CC1 (stereo not shown) [Example 583, Cyclopropyl{4-[4-(diallylamino)-4-methylcyclohexylamino]-6-(3,5-dichloro-4-hydroxyphenyl)quinolin-3-yl}methanone]",0.089 µM,10 µM,3.1 µM,2.3 µM,2.6 µM,–
CN[C@H]1CC[C@H](Nc2c(C(C)=O)cnc3ccc(-c4cc(Cl)c(O)c(OC)c4)cc23)CC1 [Example 542],0.0043 µM,1.7 µM,0.1 µM,0.069 µM,0.078 µM,–
"CN1CCC(n2cc(Nc3c(C(=O)C4CC4)cnc4ccc(-c5cc(Cl)c(O)c(Cl)c5)cc34)cn2)CC1 [Example 593, Cyclopropyl(6-(3,5-dichloro-4-hydroxyphenyl)-4-(1-(1-methylpiperidin-4-yl)-1H-pyrazol-4-ylamino)quinolin-3-yl)methanone]",0.0013 µM,4.3 µM,0.094 µM,0.044 µM,0.32 µM,–
"NC1CCN(c2ccc(Nc3c(C(=O)C4CC4)cnc4ccc(-c5cc(F)c(O)c(Cl)c5)cc34)cn2)CC1 [Example 557, (4-(6-(4-aminopiperidin-1-yl)pyridin-3-ylamino)-6-(3-chloro-5-fluoro-4-hydroxyphenyl)quinolin-3-yl)(cyclopropyl)methanone]",–,3.1 µM,0.52 µM,0.18 µM,0.11 µM,IC50 (MELK): 0.0056 µM
